Like-named read-outs stand apart in the source and are kept apart here.
Legend:
pTau = pTau assay (no method described); type: cell-based
GSK3β = GSK3β (Homo sapiens, UniProt P49841); assay: GSK3β kinase assay (Caliper LabChip3000 mobility shift, fluoresceinated peptide substrate); type: biochemical
Description: The kinase assay was performed in V-bottom 384-well plates. […] The reaction was incubated at room temperature for 20 hours and terminated by adding 45 μl of 35 mM EDTA to each sample. The reaction mixture was analyzed on the Caliper LabChip3000 (Caliper, Hopkinton, Mass.) by electrophoretic separation of the unphosphorylated substrate and phosphorylated product. […] Compounds were dissolved at 10 mM in dimethylsulfoxide (DMSO) and evaluated at eleven concentrations. IC50 values were derived by non-linear regression analysis.

GSK3α = GSK3α (Homo sapiens, UniProt P49840); assay: GSK3α kinase assay (Caliper LabChip3000 mobility shift, fluoresceinated peptide substrate)
[1] = 250 pM enzyme, 20 uM ATP, 1.5 uM peptide, 20 hours room temperature, first value of cell GSK3β/GSK3α, read-out: GSK3β (nM), IC50

Chain of GSK3α (P49840 whole entry, species assumed): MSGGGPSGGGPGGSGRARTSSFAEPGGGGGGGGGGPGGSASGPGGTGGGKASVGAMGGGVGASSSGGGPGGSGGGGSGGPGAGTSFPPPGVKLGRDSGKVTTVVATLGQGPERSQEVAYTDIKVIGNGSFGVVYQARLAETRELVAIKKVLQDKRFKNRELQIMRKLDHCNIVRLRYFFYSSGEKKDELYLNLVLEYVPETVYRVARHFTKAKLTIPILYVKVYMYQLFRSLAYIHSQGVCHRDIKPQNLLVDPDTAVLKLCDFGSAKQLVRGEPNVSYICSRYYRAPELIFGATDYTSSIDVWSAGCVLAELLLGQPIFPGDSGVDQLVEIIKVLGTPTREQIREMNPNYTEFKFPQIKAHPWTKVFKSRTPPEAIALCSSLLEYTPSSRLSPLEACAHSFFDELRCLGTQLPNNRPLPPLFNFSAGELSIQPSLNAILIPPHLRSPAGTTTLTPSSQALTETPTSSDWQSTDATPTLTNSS
Chain of GSK3β (P49841 whole entry, species assumed): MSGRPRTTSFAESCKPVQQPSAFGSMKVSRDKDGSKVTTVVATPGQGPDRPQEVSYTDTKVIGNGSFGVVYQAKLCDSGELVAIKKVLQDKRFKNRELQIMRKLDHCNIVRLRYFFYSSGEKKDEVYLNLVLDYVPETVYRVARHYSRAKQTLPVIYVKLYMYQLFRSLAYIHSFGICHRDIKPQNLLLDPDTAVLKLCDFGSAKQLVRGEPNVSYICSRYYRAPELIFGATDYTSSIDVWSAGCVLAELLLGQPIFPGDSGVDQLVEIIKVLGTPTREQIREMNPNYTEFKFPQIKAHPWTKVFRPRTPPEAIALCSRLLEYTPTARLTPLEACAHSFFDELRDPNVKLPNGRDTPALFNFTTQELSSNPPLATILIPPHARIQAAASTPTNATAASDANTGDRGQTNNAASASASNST

Work on `Cc1ccc(Nc2nccc(C(=O)Nc3cncc(-c4ccccc4F)c3)n2)cn1` [Example 103, N-(5-(2-Fluorophenyl)pyridin-3-yl)-2-((6-methylpyridin-3-yl)amino)pyrimidine-4-carboxamide] yielded an IC50 (pTau) of 510 nM, an IC50 (GSK3β; [1]) of 3.1 nM and an IC50 (GSK3α) of 1.3 nM.

`O=C(Nc1cncc(-c2ccccc2F)c1)c1ccnc(Nc2ccc(F)nc2)n1` [Example 104, N-(5-(2-Fluorophenyl)pyridin-3-yl)-2-((6-fluoropyridin-3-yl)amino)pyrimidine-4-carboxamide] showed an IC50 (pTau) of 660 nM, an IC50 (GSK3β; [1]) of 4.8 nM and an IC50 (GSK3α) of 2.1 nM.

`O=C(Nc1cncc(-c2ccccc2F)c1)c1ccnc(Nc2ccc(OC(F)F)nc2)n1` [Example 105, 2-((6-(Difluoromethoxy)pyridin-3-yl)amino)-N-(5-(2-fluorophenyl)pyridin-3-yl)pyrimidine-4-carboxamide] gave an IC50 (pTau) of 2100 nM, an IC50 (GSK3β; [1]) of 31 nM and an IC50 (GSK3α) of 15 nM.

Molecule `O=C(Nc1cnccc1OCC(F)(F)F)c1ccnc(Nc2ccc3cnccc3c2)n1` [Example 106, 2-(Isoquinolin-6-ylamino)-N-(4-(2,2,2-trifluoroethoxy)pyridin-3-yl)pyrimidine-4-carboxamide] has an IC50 (pTau) of 1.9 nM, an IC50 (GSK3β; [1]) of 0.11 nM and an IC50 (GSK3α) of 0.09 nM.

Work on `O=C(Nc1cnccc1OCC(F)(F)F)c1ccnc(Nc2ccc3cccnc3c2)n1` [Example 107, 2-(Quinolin-7-ylamino)-N-(4-(2,2,2-trifluoroethoxy)pyridin-3-yl)pyrimidine-4-carboxamide] yielded an IC50 (pTau) of 9.4 nM, an IC50 (GSK3β; [1]) of 0.17 nM and an IC50 (GSK3α) of 0.24 nM.

`O=C(Nc1cnc(F)cc1OCC(F)(F)F)c1ccnc(Nc2ccc(C(F)(F)F)cc2)n1` [Example 109, N-(6-Fluoro-4-(2,2,2-trifluoroethoxy)pyridin-3-yl)-2-((4-(trifluoromethyl)phenyl)amino) pyrimidine-4-carboxamide] showed an IC50 (pTau) of 44 nM, an IC50 (GSK3β; [1]) of 0.88 nM and an IC50 (GSK3α) of 0.43 nM.

`O=C(Nc1cnc(F)cc1OCC(F)(F)F)c1ccnc(Nc2ccc(Cl)cc2)n1` [Example 110, 2-((4-Chlorophenyl)amino)-N-(6-fluoro-4-(2,2,2-trifluoroethoxy)pyridin-3-yl)pyrimidine-4-carboxamide] showed an IC50 (pTau) of 65 nM, an IC50 (GSK3β; [1]) of 1.1 nM and an IC50 (GSK3α) of 0.68 nM.

`O=C(Nc1cnccc1OCC(F)(F)F)c1ccnc(Nc2ccc(C(F)(F)F)cn2)n1` [Example 111, N-(4-(2,2,2-Trifluoroethoxy)pyridin-3-yl)-2-((5-(trifluoromethyl)pyridin-2-yl)amino)pyrimidine-4-carboxamide] was tested, and the IC50 (pTau) was 220 nM, the IC50 (GSK3β; [1]) was 2.9 nM and the IC50 (GSK3α) was 2.2 nM.

For `O=C(Nc1cnccc1OCC(F)(F)F)c1ccnc(Nc2ccc(F)cc2F)n1` [Example 113, 2-((2,4-Difluorophenyl)amino)-N-(4-(2,2,2-trifluoroethoxy)pyridin-3-yl)pyrimidine-4-carboxamide], the IC50 (pTau) was 300 nM, the IC50 (GSK3β; [1]) was 5.3 nM and the IC50 (GSK3α) was 4 nM.

Molecule `O=C(Nc1cnccc1OCC(F)(F)F)c1ccnc(Nc2ccccn2)n1` [Example 114, 2-(Pyridin-2-ylamino)-N-(4-(2,2,2-trifluoroethoxy)pyridin-3-yl)pyrimidine-4-carboxamide] has an IC50 (pTau) of 210 nM, an IC50 (GSK3β) of 20 nM and an IC50 (GSK3α) of 14 nM.

For `O=C(Nc1cnccc1OCC(F)(F)F)c1ccnc(NC2CCCC2)n1` [Example 116, 2-(Cyclopentylamino)-N-(4-(2,2,2-trifluoroethoxy)pyridin-3-yl)pyrimidine-4-carboxamide], the IC50 (pTau) was 12 nM, the IC50 (GSK3β; [1]) was 0.19 nM and the IC50 (GSK3α) was 0.16 nM.

Molecule `O=C(Nc1cnccc1OCC(F)(F)F)c1ccnc(NC2CCCCC2)n1` [Example 117, 2-(Cyclohexylamino)-N-(4-(2,2,2-trifluoroethoxy)pyridin-3-yl)pyrimidine-4-carboxamide] has an IC50 (pTau) of 28 nM, an IC50 (GSK3β; [1]) of 0.25 nM and an IC50 (GSK3α) of 0.21 nM.

With `O=C(Nc1cnccc1OCC(F)(F)F)c1ccnc(NCC2CC2)n1` [Example 118, 2-((Cyclopropylmethyl)amino)-N-(4-(2,2,2-trifluoroethoxy)pyridin-3-yl)pyrimidine-4-carboxamide] the IC50 (pTau) was 14 nM, the IC50 (GSK3β; [1]) was 0.3 nM and the IC50 (GSK3α) was 0.28 nM.

`CC(C)Nc1nccc(C(=O)Nc2cnccc2OCC(F)(F)F)n1` [Example 120, 2-(Isopropylamino)-N-(4-(2,2,2-trifluoroethoxy)pyridin-3-yl)pyrimidine-4-carboxamide] gave an IC50 (pTau) of 26 nM, an IC50 (GSK3β; [1]) of 0.44 nM and an IC50 (GSK3α) of 1.4 nM.

`CC(C)(C)C1CCC(Nc2nccc(C(=O)Nc3cnccc3OCC(F)(F)F)n2)CC1` (stereo not drawn) [Example 121, 2-((4-(tert-Butyl)cyclohexyl)amino)-N-(4-(2,2,2-trifluoroethoxy)pyridin-3-yl)pyrimidine-4-carboxamide] was tested, and the IC50 (pTau) was 61 nM, the IC50 (GSK3β; [1]) was 0.46 nM and the IC50 (GSK3α) was 0.35 nM.

`CC(C)(C)[C@H]1CC[C@@H](Nc2nccc(C(=O)Nc3cnccc3OCC(F)(F)F)n2)CC1` [Example 122] gave an IC50 (pTau) of 4200 nM, an IC50 (GSK3β; [1]) of 8.4 nM and an IC50 (GSK3α) of 12 nM.

In the case of `CCNc1nccc(C(=O)Nc2cnccc2OCC(F)(F)F)n1` [Example 123, 2-(Ethylamino)-N-(4-(2,2,2-trifluoroethoxy)pyridin-3-yl)pyrimidine-4-carboxamide], the IC50 (pTau) is reported as 55 nM, the IC50 (GSK3β; [1]) is reported as 0.92 nM and the IC50 (GSK3α) is reported as 4.5 nM.

In the case of `O=C(Nc1cnccc1OCC(F)(F)F)c1ccnc(NC2CCOCC2)n1` [Example 124, 2-((Tetrahydro-2H-pyran-4-yl)amino)-N-(4-(2,2,2-trifluoroethoxy)pyridin-3-yl)pyrimidine-4-carboxamide], the IC50 (pTau) is reported as 68 nM, the IC50 (GSK3β) is reported as 0.99 nM and the IC50 (GSK3α) is reported as 0.95 nM.

In the case of `CC(C)C(C)Nc1nccc(C(=O)Nc2cnccc2OCC(F)(F)F)n1` (stereo not drawn) [Example 125, 2-((3-Methylbutan-2-yl)amino)-N-(4-(2,2,2-trifluoroethoxy)pyridin-3-yl)pyrimidine-4-carboxamide], the IC50 (pTau) is reported as 55 nM, the IC50 (GSK3β; [1]) is reported as 1.1 nM and the IC50 (GSK3α) is reported as 0.84 nM.

For `CC(Nc1nccc(C(=O)Nc2cnccc2OCC(F)(F)F)n1)C(C)(C)C` (stereo not drawn) [Example 126, 2-((3,3-Dimethylbutan-2-yl)amino)-N-(4-(2,2,2-trifluoroethoxy)pyridin-3-yl)pyrimidine-4-carboxamide], the IC50 (pTau) was 110 nM, the IC50 (GSK3β; [1]) was 1.1 nM and the IC50 (GSK3α) was 0.41 nM.

Molecule `O=C(Nc1cnccc1OCC(F)(F)F)c1ccnc(NCc2ccccc2)n1` [Example 128, 2-(Benzylamino)-N-(4-(2,2,2-trifluoroethoxy)pyridin-3-yl)pyrimidine-4-carboxamide] has an IC50 (pTau) of 210 nM, an IC50 (GSK3β; [1]) of 1.2 nM and an IC50 (GSK3α) of 1.3 nM.

`O=C(Nc1cnccc1OCC(F)(F)F)c1ccnc(NCc2ccccc2F)n1` [Example 129, 2-((2-Fluorobenzyl)amino)-N-(4-(2,2,2-trifluoroethoxy)pyridin-3-yl)pyrimidine-4-carboxamide] showed an IC50 (pTau) of 180 nM, an IC50 (GSK3β; [1]) of 1.5 nM and an IC50 (GSK3α) of 1.8 nM.

`O=C(Nc1cnccc1OCC(F)(F)F)c1ccnc(NC2CC2)n1` [Example 130, 2-(Cyclopropylamino)-N-(4-(2,2,2-trifluoroethoxy)pyridin-3-yl)pyrimidine-4-carboxamide] was tested, and the IC50 (pTau) was 46 nM, the IC50 (GSK3β; [1]) was 1.6 nM and the IC50 (GSK3α) was 1.5 nM.

With `O=C(Nc1cnccc1OCC(F)(F)F)c1ccnc(NCc2ccc(F)cc2)n1` [Example 131, 2-((4-Fluorobenzyl)amino)-N-(4-(2,2,2-trifluoroethoxy)pyridin-3-yl)pyrimidine-4-carboxamide] the IC50 (pTau) was 160 nM, the IC50 (GSK3β; [1]) was 1.8 nM and the IC50 (GSK3α) was 2.2 nM.

`O=C(Nc1cnccc1OCC(F)(F)F)c1ccnc(NCc2ccc3c(c2)OCO3)n1` [Example 132, 2-((Benzo[d][1,3]dioxol-5-ylmethyl)amino)-N-(4-(2,2,2-trifluoroethoxy)pyridin-3-yl)pyrimidine-4-carboxamide] gave an IC50 (pTau) of 220 nM, an IC50 (GSK3β) of 1.9 nM and an IC50 (GSK3α) of 2.2 nM.

`CC1CC(Nc2nccc(C(=O)Nc3cnccc3OCC(F)(F)F)n2)CC(C)O1` (stereo not drawn) [Example 133, 2-((2,6-Dimethyltetrahydro-2H-pyran-4-yl)amino)-N-(4-(2,2,2-trifluoroethoxy)pyridin-3-yl)pyrimidine-4-carboxamide] was tested, and the IC50 (pTau) was 380 nM, the IC50 (GSK3β; [1]) was 1.9 nM and the IC50 (GSK3α) was 38 nM.

`O=C(Nc1cnccc1OCC(F)(F)F)c1ccnc(NCc2ccc(C(F)(F)F)cc2)n1` [Example 134, N-(4-(2,2,2-Trifluoroethoxy)pyridin-3-yl)-2-((4-(trifluoromethyl)benzyl)amino)pyrimidine-4-carboxamide] was tested, and the IC50 (pTau) was 310 nM, the IC50 (GSK3β; [1]) was 2.8 nM and the IC50 (GSK3α) was 5.4 nM.

Work on `CNc1nccc(C(=O)Nc2cnccc2OCC(F)(F)F)n1` [Example 135, 2-(Methylamino)-N-(4-(2,2,2-trifluoroethoxy)pyridin-3-yl)pyrimidine-4-carboxamide] yielded an IC50 (pTau) of 400 nM, an IC50 (GSK3β; [1]) of 3.6 nM and an IC50 (GSK3α) of 14 nM.

Molecule `O=C(Nc1cnccc1OCC(F)(F)F)c1ccnc(NCc2ccccc2C(F)(F)F)n1` [Example 137, N-(4-(2,2,2-Trifluoroethoxy)pyridin-3-yl)-2-((2-(trifluoromethyl)benzyl)amino)pyrimidine-4-carboxamide] has an IC50 (pTau) of 350 nM, an IC50 (GSK3β; [1]) of 4.1 nM and an IC50 (GSK3α) of 2.3 nM.

In the case of `CC(Nc1nccc(C(=O)Nc2cnccc2OCC(F)(F)F)n1)c1ccccc1` (stereo not drawn) [Example 138, 2-((1-Phenylethyl)amino)-N-(4-(2,2,2-trifluoroethoxy)pyridin-3-yl)pyrimidine-4-carboxamide], the IC50 (pTau) is reported as 430 nM, the IC50 (GSK3β; [1]) is reported as 6.1 nM and the IC50 (GSK3α) is reported as 3.2 nM.

`O=C(Nc1cnccc1OCC(F)(F)F)c1ccnc(NCc2cccc(C(F)(F)F)c2)n1` [Example 139, N-(4-(2,2,2-Trifluoroethoxy)pyridin-3-yl)-2-((3-(trifluoromethyl)benzyl)amino)pyrimidine-4-carboxamide] gave an IC50 (pTau) of 570 nM, an IC50 (GSK3β; [1]) of 6.3 nM and an IC50 (GSK3α) of 5.4 nM.

`O=C(Nc1cnccc1OCC(F)(F)F)c1ccnc(NCc2cccc(F)c2)n1` [Example 140, 2-((3-Fluorobenzyl)amino)-N-(4-(2,2,2-trifluoroethoxy)pyridin-3-yl)pyrimidine-4-carboxamide] was tested, and the IC50 (pTau) was 280 nM, the IC50 (GSK3β; [1]) was 1.3 nM and the IC50 (GSK3α) was 1.6 nM.

Reference: patent US10752609B2, “GSK-3 inhibitors” (priority 2016, dated 2020)
